According to patent US10385003B2, “Ophthalmic formulation” (priority 2011, dated 2019):
“Also recorded” adds a separate entry of the source. Where two headings read alike, the source gives them in different places.

Key:
[1] = Π-A and pressure/time measurements of meibomian lipid films mixed with compounds of formula (I) (Example 5, FIG. 2); type: physicochemical, human
Protocol: (§1) The physico-chemical properties of certain wax esters, meibomian lipids, and compounds of formula (I) alone or mixed with human meibum were characterized on a Langmuir-Blodgett minitrough by means of surface pressure-area (Π-A) measurements.
(§2) A buffer (NaCl: 6.63 g/L, KCl: 1.72 g/L, NaHCO3: 1.38 g/L, CaCl2.2H2O: 0.15 g/L, NaH2PO4.H2O: 0.10 g/L and MOPS: 4.18 g/L dissolved in MilliQ water) was added to a double barrier minitrough (Nima Technology Ltd, UK; Working surface area 15 cm^2−80 cm^2). Purified preparations of wax esters in chloroform (1 mg/mL), meibomian lipids in chloroform (1 mg/mL), and compounds of formula (I) in chloroform (ranging from 1.4 μmol to 0.1 μmol) alone or mixed with human meibum at different ratios, were spread on the surface (air-buffer interface) of the buffer subphase. Dynamic Π-A profiles of films at the air-buffer interface of the Langmuir trough were collected using software supplied by NIMA Technology. Surface pressure was monitored using a paper plate connected to a Wilhelmy balance. Compression and expansion cycles were conducted over an area (A) of 79 cm^2−16 cm^2 at a barrier rate of 15 cm^2/min and at a temperature of 20° C. and 34° C.
Adding a small amount of a compound of formula (I) causes fast stabilisation of the film (indicated on the pressure/time curve with the mixture having little change between isocycles) and the maximum surface pressures are much higher.

[2] = Π-A isocycles of equimolar pure lipid films on artificial tear buffer, Langmuir trough (Example 6, FIG. 4); type: physicochemical; conditions: for surface activity of pure film: 7.5 nmol film; for surface activity of pure film / change of Π-A profile / take-off through repeated isocycles / change of maximum surface pressure (Πmax) with increasing isocycles: 35° C.; for change of Π-A profile / take-off through repeated isocycles / change of maximum surface pressure (Πmax) with increasing isocycles: 7.5 nmol pure film; for surface area per molecule on take-off: pure film, estimated
Protocol: (§3) Freshly synthesised (O-oleoyl)-ω-hydroxypalmitic acid (an example of a compound of formula (I)) was spread either alone or mixed with human meibum on a Langmuir trough on an artificial tear buffer. Pressure-area isocycle profiles were recorded and compared with those of palmityl oleate and oleic acid, alone or mixed with meibum. These measurements were accompanied by fluorescence microscopy of meibum mixed films during pressure-area isocycles.
The surface characteristics of (O-oleoyl)-ω-hydroxypalmitic acid were compared with palmityl oleate (a structurally similar wax ester) and oleic acid (which is equivalent to the fatty acid (amphiphilic) component of (O-oleoyl)-ω-hydroxypalmitic acid).
Films were formed by spreading 7.5 nmol of the lipids dissolved in chloroform onto the cleaned surface (air-buffer interface) of an artificial tear buffer (NaCl: 6.63 g/L, KCl: 1.72 g/L, NaHCO3: 1.38 g/L, CaCl2.2H2O: 0.15 g/L, NaH2PO4×H2O: 0.10 g/L and MOPS: 4.18 g/L dissolved in ion exchange ultrapure water) in a double barrier 80 mL temperature-controlled (35° C.) Langmuir trough (Nima Technology Ltd, UK). After 5 isocycles were obtained, the temperature was lowered to 20° C. A Whilhelmy balance (Whatman No. 1 filter paper) was used to record surface pressure during isocycles (79 cm^2-16 cm^2 at 10 cm^2/min).

[3] = Surface pressure-area (Π-A) measurements of pure lipid films on a Langmuir-Blodgett minitrough (Example 5, FIG. 1); type: physicochemical; conditions: pure film at air-buffer interface, 20° C. and 34° C.
Protocol: as §1, §2
This is indicated by the take-off moving to the left of the x-axis (indicating collapse), whereas the take-off for the compounds of formula (I) remains constant.

[4] = Π-A isocycles of human meibum films mixed with model lipids (Example 6, FIG. 5); type: physicochemical; conditions: for change of Πmax in subsequent isocycles: meibum 20 μg mixed with lipid, 20° C.; for Πmax in the first isocycle versus meibomian lipid films alone: meibum 20 μg mixed with −10 mol % lipid, spread at 20° C.
Protocol: as §3
Collection of meibomian lipids was in accordance with the Tenets of Helsinki. Human meibomian lipids were gently squeezed out of the meibomian glands of a single subject's lower eyelids by applying pressure to the eyelids using sterile cotton swabs on either side of the lid. Multiple collections were carried out and pooled to provide consistency in the experiments. The subject was devoid of any external signs or symptoms of ocular pathology including dry eye disease. The expressed lipids were harvested using a sterile stainless steel spatula and dissolved in chloroform. The meibomian lipids were dried through vacuum concentration and centrifugation, and then reconstituted in chloroform spiked with 0.5% (w/w) of the fluorophore, 1-palmitoyl-2-[12-[(7-nitro-2-1,3-benzoxadiazol-4-yl)amino]dodecanoyl]-sn-glycero-3-phosphatidylcholine] (NBD-DPPC) (Avanti Polar Lipids, Auspep Pty. Ltd (Tullamarine, Australia)) and stored at −20° C. until used.
The results were compared with mixtures with meibomian lipids. Human meibum (20 μg) was mixed with −10 mol % (O-oleoyl)-ω-hydroxypalmitic acid (2 μg) or with palmityl oleate (1.9 μg) or oleic acid (1.1 μg). These mixtures were spread at 20° C. and 5 isocycles carried out. The film was then heated to 35° C. for another 5 isocycles. The Π-A curves were compared with those for pure meibomian lipid films. In some cases, meibomian lipids doped with 0.5% (w/w) NBD-DPPC were used in order to view the films microscopically.
In general, meibomian films were very tolerant to the changes in their composition, indicated by the fact that the shapes of the different Π-A curves of mixed films were similar to those obtained from films of pure meibomian lipids (FIG. 5). […] Meibum containing fluorophore was spread on artificial tear buffer alone or pre-mixed with each of (O-oleoyl)-ω-hydroxypalmitic acid, palmityl oleate, or oleic acid were spread at 20° C. on the trough. After five isocycles, the trough was heated to 35° C. and five more isocycles were carried out. Then the trough was cooled back to 20° C. and again five more isocycles were run.

[5] = Π-A measurements of meibomian lipids from a patient with dry eye disease mixed with a compound of formula (I) (Example 5, FIG. 3); type: physicochemical, human; conditions: dry eye patient meibomian lipids with 3 μL compound
Protocol: as §2

[6] = Fluorescence microscopy of meibum mixed films during pressure-area isocycles (Example 6, FIG. 6); type: physicochemical, human; conditions: NBD-DPPC doped meibum, 20° C.
Protocol: as §3
Collection of meibomian lipids was in accordance with the Tenets of Helsinki. Human meibomian lipids were gently squeezed out of the meibomian glands of a single subject's lower eyelids by applying pressure to the eyelids using sterile cotton swabs on either side of the lid. Multiple collections were carried out and pooled to provide consistency in the experiments. The subject was devoid of any external signs or symptoms of ocular pathology including dry eye disease. […]
Micrographs comparing the appearance of pure meibomian lipid films (Row A) with meibomian lipids mixed with the (O-oleoyl)-ω-hydroxypalmitic acid (Row B), palmityl oleate (Row C) or oleic acid (Row D) at 20° C. […] Although not quantitatively verified, the darker patches appeared to be more prevalent in the mixed films of palmityl oleate and oleic acid than for pure meibomian lipid films.

[7] = meibomian lipids (20 μL) mixed with 3-5 μL compound, FIG. 2

**Q.** Which “stabilisation of meibomian lipid film” value [1, 7] does the source give for `CCCCCCCC/C=C\CCCCCCCC(=O)OCCCCCCCCCC(=O)O` [(O-oleoyl)-10-hydroxycaprinic acid, (O)-oleoyl-10-hydroxydecanoic acid] here?
**A.** stabilise the films

**Q.** For `CCCCCCCC/C=C\CCCCCCCC(=O)OCCCCCCCCCCCCCCCC(=O)O` [(O-oleoyl)-16-hydroxypalmitic acid], which “surface activity of pure film” value ([2]; listed as (O-oleoyl)-w-hydroxypalmitic acid) is on record?
**A.** as surface active as oleic acid films

**Q.** What about the “surface activity of pure film” value ([2]; listed as (O-oleoyl)-ω-hydroxypalmitic acid) of the same compound?
**A.** very surface active; also recorded: much more surface active

**Q.** And the “change of Π-A profile / take-off through repeated isocycles” value ([2]; FIG. 4)?
**A.** little change in its profile

**Q.** What about the “surface area covered by pure film” value ([2]; compared with palmityl oleate or oleic acid) of the same compound?
**A.** much larger surface area than either palmityl oleate or oleic acid

**Q.** And the “surface area per molecule on take-off” value [2]?
**A.** 131 Å^2 per molecule

**Q.** And the “film collapse during compression/expansion cycles (take-off position)” value [3]?
**A.** do not collapse

**Q.** What about the “stabilisation of meibomian lipid film” value [1, 7] of the same compound?
**A.** stabilise the films

**Q.** What about the “change of Πmax in subsequent isocycles” value [4] of the same compound?
**A.** small increase

**Q.** And the “Πmax in the first isocycle versus meibomian lipid films alone” value [4]?
**A.** higher

**Q.** And the “hysteresis of pressure/area curve” value [5]?
**A.** increase in hysteresis

**Q.** And the “surface pressure of film” value [5]?
**A.** increases the surface pressure

**Q.** With `CCCCCCCCCCCCCCCCCC(=O)OCCCCCCCCCCCCCCCC(=O)O` [(O-stearyl)-16-hydroxypalmitic acid, (O)-stearyl-16-hydroxypalmitic acid] as the compound, how does the “film collapse during compression/expansion cycles (take-off position)” value [3] read?
**A.** do not collapse

**Q.** And the “stabilisation of meibomian lipid film” value [1]?
**A.** stabilise the films

**Q.** Which results are given for `CCCCCCCC/C=C\CCCCCCCC(=O)O` [oleic acid, reference compound]?
**A.** change of maximum surface pressure (Πmax) with increasing isocycles ([2]; FIG. 4): decreases; change of Π-A profile / take-off through repeated isocycles ([2]; FIG. 4): decreases in take-off; microscopic appearance of meibomian film mixed with lipid [6]: did not appear substantially different from pure meibomian lipid films; change of Πmax in subsequent isocycles [4]: decreased; Πmax in the first isocycle versus meibomian lipid films alone [4]: higher

**Q.** Which results are given for `CCCCCCCC/C=C\CCCCCCCC(=O)OCCCCCCCCCCCCCCCC` [palmityl oleate, reference compound]?
**A.** change of maximum surface pressure (Πmax) with increasing isocycles ([2]; FIG. 4): increase in maximum surface pressure; change of Π-A profile / take-off through repeated isocycles ([2]; FIG. 4): slow shift in the Π-A curve to the left; area per molecule at flattening of the Π-A curve ([2]; assuming the film is a monolayer up to this point, FIG. 4): about 60 Å^2; surface area per molecule on take-off [2]: 82 Å^2 per molecule; microscopic appearance of meibomian film mixed with lipid [6]: did not appear substantially different from pure meibomian lipid films; film collapse during compression/expansion cycles (take-off position) [3]: collapse; change of Πmax in subsequent isocycles [4]: marked increase; Πmax in the first isocycle versus meibomian lipid films alone [4]: did not influence

**Q.** With `CCCCCCCCCCCCCCCCCC(=O)OCCCCCCCCCCCCCCCC` [palmityl stearate wax ester, palmityl stearate] as the compound, how does the “film collapse during compression/expansion cycles (take-off position)” value [3] read?
**A.** collapse

**Q.** For `CC/C=C\C/C=C\C/C=C\CCCCCCCC(=O)OCCCCCCCCCCCCCCCCCC` [steroyl linolenate wax ester, steroyl linolenate], which “film collapse during compression/expansion cycles (take-off position)” value [3] is on record?
**A.** collapse
